Source: ChEMBL document CHEMBL1201862, “PubChem BioAssay data set” (2004)
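Tested at 5 concentrations; 48 h exposure; 96-well plates; endpoints linearly interpolated, else capped at highest concentration. At the GI50, growth is halved.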 Active and inactive are the calls of the source. Rule as the data show it: active = GI50 up to about 1.1 µM and inactive = higher.

Tests used:
Test in all cases: NCI tumour cell line growth inhibition, 48 h
786-0 = tested on: 786-0
A498 = tested on: A498
A549 = tested on: A549
CAKI-1 = tested on: CAKI-1
EKVX = tested on: EKVX
HCT-15 = tested on: HCT-15
Hs-578T = tested on: Hs-578T
KM12 = tested on: KM12
M14 = tested on: M14
MDA-MB-435 = tested on: MDA-MB-435
Malme-3M = tested on: Malme-3M
NCI-H522 = tested on: NCI-H522
OVCAR-5 = tested on: OVCAR-5
SK-MEL-5 = tested on: SK-MEL-5
SK-OV-3 = tested on: SK-OV-3
SNB-19 = tested on: SNB-19
SR = tested on: SR
TK-10 = tested on: TK-10
UACC-257 = tested on: UACC-257
HT-29 = tested on: HT-29

Row | SMILES | GI50 (786-0) | GI50 (A498) | GI50 (A549) | GI50 (CAKI-1) | GI50 (EKVX) | GI50 (HCT-15) [µM] | GI50 (Hs-578T) | GI50 (KM12) | GI50 (M14) | GI50 (MDA-MB-435) | GI50 (Malme-3M) | GI50 (NCI-H522) | GI50 (OVCAR-5) | GI50 (SK-MEL-5) | GI50 (SK-OV-3) | GI50 (SNB-19) | GI50 (SR) | GI50 (TK-10) | GI50 (UACC-257) | GI50 (HT-29)
1 | Cc1ccc(S(=O)(=O)c2ccsc2NC(=O)c2ccccc2)cc1 | 23 µM (inactive) | 45.9 µM (inactive) | 48.1 µM (inactive) | 40.7 µM (inactive) | > 55.6 µM (inactive) | > 100 | 17.3 µM (inactive) | > 100 µM (inactive) | > 100 µM (inactive) | 3.11 µM (inactive) | > 100 µM (inactive) | > 100 µM (inactive) | > 100 µM (inactive) | 12.7 µM (inactive) | 46.9 µM (inactive) | > 64.3 µM (inactive) | 4.79 µM (inactive) | 36.3 µM (inactive) | > 100 µM (inactive) | 
2 | COC(=O)c1ccccc1/C=C1\Cc2cc3c(cc2C1=O)CCC3 | 38.4 µM (inactive) | 61.2 µM (inactive) | > 100 µM (inactive) | > 100 µM (inactive) | > 100 µM (inactive) | 29.8 | > 10 µM (inactive) | > 100 µM (inactive) | 24 µM (inactive) | 3.89 µM (inactive) | > 100 µM (inactive) | 68.9 µM (inactive) | > 100 µM (inactive) | > 100 µM (inactive) | > 100 µM (inactive) | > 100 µM (inactive) | > 100 µM (inactive) | 59.8 µM (inactive) | > 100 µM (inactive) | > 100 µM (inactive)
3 | CN(CCCNC(=O)c1nn(-c2ccccc2)c2c1Cc1ccccc1-2)CCCNC(=O)c1nn(-c2ccccc2)c2c1Cc1ccccc1-2 | 1.65 µM (inactive) | 1.69 µM (inactive) | 1.66 µM (inactive) | 1.38 µM (inactive) | 1.83 µM (inactive) | 1.64 | 1.25 µM (inactive) | 1.9 µM (inactive) | 1.05 µM (active) | 1.23 µM (inactive) | 1.5 µM (inactive) | 1.35 µM (inactive) | 1.75 µM (inactive) | 1.57 µM (inactive) | 1.72 µM (inactive) | 1.61 µM (inactive) | 0.191 µM (active) | 1.74 µM (inactive) | 1.72 µM (inactive) | 1.73 µM (inactive)
4 | O=C(/N=C1/OC(CN2CCOCC2)CN1C(=O)Nc1ccccc1)Nc1ccccc1 (centres undefined) | > 100 µM (inactive) | > 100 µM (inactive) | > 100 µM (inactive) | > 100 µM (inactive) | > 100 µM (inactive) | > 100 | > 100 µM (inactive) | > 100 µM (inactive) | > 100 µM (inactive) | > 100 µM (inactive) | > 100 µM (inactive) | > 100 µM (inactive) | > 100 µM (inactive) | > 100 µM (inactive) | > 100 µM (inactive) | > 100 µM (inactive) | > 100 µM (inactive) | > 100 µM (inactive) | > 100 µM (inactive) | > 100 µM (inactive)
5 | Cc1ccc(NC(=O)COc2ccc(Cl)cc2)cc1Cl | 44.5 µM (inactive) | 45.3 µM (inactive) | 74.1 µM (inactive) | 18.7 µM (inactive) | 46.3 µM (inactive) | > 100 | 14.2 µM (inactive) | > 100 µM (inactive) | 47.1 µM (inactive) | > 100 µM (inactive) | 30.5 µM (inactive) | 75.7 µM (inactive) | 68.1 µM (inactive) | > 100 µM (inactive) | 52.4 µM (inactive) | 74.1 µM (inactive) | 10.1 µM (inactive) | 27.3 µM (inactive) | 83.4 µM (inactive) | > 100 µM (inactive)
6 | CC(C)CNP(=O)(NCC(C)C)Oc1ccc(CC(NC(=O)OCc2ccccc2)C(=O)OCc2ccccc2)cc1 (centres undefined) | 13.6 µM (inactive) | 22.5 µM (inactive) | 47.5 µM (inactive) | > 100 µM (inactive) | 34.8 µM (inactive) | 26.9 | 28.4 µM (inactive) | 18.1 µM (inactive) | 24.3 µM (inactive) | 10 µM (inactive) | 19.1 µM (inactive) | 13.4 µM (inactive) | > 100 µM (inactive) | 20.2 µM (inactive) | 15.2 µM (inactive) | 25.2 µM (inactive) | 6.17 µM (inactive) | 31.4 µM (inactive) | 24.8 µM (inactive) | 17.2 µM (inactive)
7 | COc1ccc(C(=O)Nc2ccc3oc(-c4ccccc4)nc3c2)cc1 | 92.7 µM (inactive) | > 100 µM (inactive) | > 100 µM (inactive) | > 100 µM (inactive) | > 100 µM (inactive) | > 100 | > 100 µM (inactive) | > 100 µM (inactive) | > 100 µM (inactive) | > 100 µM (inactive) | > 100 µM (inactive) | > 100 µM (inactive) | > 100 µM (inactive) | > 100 µM (inactive) | 56.4 µM (inactive) | 50.5 µM (inactive) | > 100 µM (inactive) | > 100 µM (inactive) | > 100 µM (inactive) | > 100 µM (inactive)
